Test results from US20240197623A1, “SILICA-BASED FORMULATIONS OF THERAPEUTIC OLIOGPEPTIDES AND PEPTIDOMIMETICS” (Stealth Bio Therapeutics Inc., priority 2021, published 2024).
Where a SMILES comes first, the peptide text is derived from it. [ ]: non-standard residue; d: D form. Dmt = Cc1cc(O)cc(C)c1C[C@H](N)C(=O)O

Key:
[1] = Release/stability of API in ammonium bifluoride, stability-indicating RP-HPLC; type: physicochemical; conditions: for modification of the API by the formulation process: impurities in fresh API vs API released from microparticle formulations
[2] = test system: patients with intermediate age-related macular degeneration (AMD) and high-risk drusen (HRD); conditions: subcutaneous administration, ReCLAIM, Ophthalmology Science 2022; cited from earlier work
[3] = test system: age-related visual impairment; conditions: Alam et al., Disease Models & Mechanisms (2021); cited from earlier work

Compound | Purity ([1]; Control/standard: 16 μg/mL Compound I in H2O) [%] | Purity ([1]; Control/standard: 40 μg/mL Compound I in H2O) [%] | Purity ([1]; Spiked: 16 μg/mL Compound I in 0.1M NH4HF2) [%] | Purity ([1]; Spiked: 40 μg/mL Compound I in 0.1M NH4HF2) [%] | modification of the API by the formulation process [1] | safety and tolerability [2] | treatment of photopic age-related loss of spatial vision [3]
Cc1cc(O)cc(C)c1C[C@H](NC(=O)[C@H](N)CCCNC(=N)N)C(=O)N[C@@H](CCCCN)c1nc(Cc2ccccc2)no1 [Compound I] | 99.1 | 98.4 | 99.2 | 98.6 | not significantly modified |  | 
Cc1cc(O)cc(C)c1C[C@H](NC(=O)[C@H](N)CCCNC(=N)N)C(=O)N[C@@H](CCCCN)C(=O)N[C@@H](Cc1ccccc1)C(N)=O [elamipretide] (H-[dR][Dmt]KF-NH2) |  |  |  |  | not significantly modified | safe and well-tolerated | effective
